Experiment [1] has as its system virions from HIV-1-transfected HeLa cells (pNL4-3). Kind of experiment: Electron micrographs of virions from HIV-1 transfected HeLa cells. It is filed as cell-based, human. The note with it: 10 and 20 uM; vs untreated control cells. On the procedure: Virions collected from HeLa cells 24 hours post-transfected with pNL4-3 HIV-1 were treated with or without FX101 for 2 hours, washed with phosphate-buffered saline, pelleted by ultracentrifugation, fixed with buffer containing 2% glutaraldehyde and 0.1M sodium cacodylate as described (Freed, 1994), and analyzed by electron microscopy. These images reveal comparative distortions of both viral core and corresponding membranes of viral progeny, consistent with published images of immature virion particles having a thick electron-dense outer shell and an electron-lucent center lacking a typical cone-shaped core, produced by nucleocapsid mutant virions (Tanchou, 1998). Mutational deletion of either or both zinc finger domains of the nucleocapsid protein also produces morphologically altered virions, reduces virion release and alters RNA packaging (Houzet, 2008). The failure of nucleocapsid protein proteins to chaperone viral RNA together with the failure to form the nucleocapsid membrane reflects two roles of nucleocapsid proteins involving zinc finger domains. Obstruction of virion assembly may create impotent virions while maintaining antigens for host humoral immune response as virus-like particles. […]

Experiment [2] concerns the target F2 zinc finger peptide (Human immunodeficiency virus type 1 group M subtype B, UniProt P12493).
Experimental: Solutions of F2 zinc finger peptide in phosphate-buffered saline without calcium or magnesium (see Example 1) alone or mixed with zinc and/or platinum compounds were analyzed by MALDI-TOF (matrix-assisted laser desorption/time-of-flight) MS (mass spectrometry). Briefly, the samples comprised 1:1 ratios of F2 peptide with metals in phosphate buffered saline without calcium or magnesium at 2×10 moles/liter concentrations. Additionally, samples containing both Zn(II) and Pt(IV) metals with F2 peptide in a 1:1:1 ratio were analyzed, as were various Pt(IV) and Pt(II) compounds mixed with F2 peptide solutions. Samples were considered to be at equilibrium after 12 hours stored at 4° C. Volumes of 0.5-1.0 microliters for each sample were individually spotted with or without dilution at 1:10, 1:100 or 1:1000 (˜165-193 pmole/microliter) in DHB matrix (Laser Biolabs, France). […]
The main group of peaks include at least two overlapping peaks characteristic of cysteines (see note above) with neutral mass within 2451.82-2457.82 Da, singly charged ions at m/z 2452.82-2458.82 Da. […] While MALDI-TOF MS is not quantitative, relative peak heights are proportional to relative amounts of species.
Experiment [3] addresses synthetic peptide F2, the carboxy-terminal zinc finger domain of HIV-1 (Human immunodeficiency virus type 1 group M subtype B, UniProt P12493). As to conditions: 1:1 metal:F2, 10^−4 mole/liter in PBS.
Experimental: The synthetic peptide F2, the carboxy-terminal zinc finger domain of HIV-1, was examined by ultraviolet-visible absorption spectroscopy for its interaction with various metals. […] Stock solutions of 2×10^−4 mole/liter F2 peptide were prepared in phosphate buffered saline (PBS) without calcium or magnesium; known stock concentrations of Fe(II), Co(II), Zn(II) and Pt(IV) metals were also prepared in PBS. One to one ratios of F2 peptide with each metal were individually combined at room temperature with final concentrations of 10^−4 mole/liter, and spectra were collected at various times using a Nanodrop Spectrophotometer (Thermo Scientific, Inc.) having a xenon flash lamp and requiring <2 microliters of sample deposited directly onto an optical lense.

“Also recorded” adds a separate entry of the source.

On to `[NH2][Pt]([NH2])([Cl])([Cl])([Cl])[N+](=O)[O-]` [FX101, nitrotrichlorodiamminoPt(IV)], for which the “virion morphology (phenotype of virions produced)” value in experiment [1] is “immature virions; also recorded: nucleotide-defective and nucleotide-deficient virion particles with morphologically altered phenotypes”. In addition, the “competition with zinc for the F2 zinc finger binding domain” value in experiment [2] (1:1:1 F2:FX:Zn) is “thermodynamic competition of FX over zinc”. Further, in experiment [2] (1:1 with F2 peptide in PBS, 12 hours at 4° C.), the “coordination with F2 peptide (set of peaks at m/z 2452.82-2458.82 Da)” value is listed as “unique to the F2 peptide+FX spectral complex”. For the same compound, the “comparative absorption at 250 nm of metal with F2 peptide” value in experiment [3] is given as 0.118.

The record behind these values is US8895610B1, “Platinum (IV) compounds targeting zinc finger domains” (priority 2007, dated 2014).
